According to patent US9593068B2, “Derivatives of tartaric acid” (RATIOPHARM GMBH, priority 2013, dated 2017):

Experiment: Kinetics of MMF-release during incubation in intestinal fluid of the minipig (LC-MS quantification of MMF)
Format: in vitro ADME, Göttingen SPF minipig
Conditions: diluted small intestinal fluid (1/20 v/v with 50 mM KH2PO4, pH 6.8), 37° C., samples at 0-120 min; reference DMF; FIG. 1 / FIG. 2
Description: Investigation and Comparision of the Kinetics of MMF-Release of the Different Compounds of the Present Invention and DMF During Incubation in Intestinal Fluid of the Minipig
Intestinal fluid samples were prepared at CiToxLAB Scantox A/S. The samples were taken from 1 female Göttingen SPF minipig from CiToxLAB Scantox A/S standard stock, originally obtained from Ellegaard Göttingen Minipigs A/S, DK-4261 Dalmose, Denmark. The minipig was 10 months old and the body weight was 21 kg. The minipig was identified by an individual number tagged to the pinna of one ear (animal number is documented in the raw data).
The minipig was fasted for approximately 28 hours before sampling of intestinal fluid. On the day of sampling, the minipig was weighed and anaesthetised by an intramuscular injection in the neck or in the left hind leg (about 0.3 ml per kg body weight) of a mixture of Zoletil 50 Vet., Virbac, France (125 mg tiletamine and 125 mg zolazepam), Rompun Vet., Bayer, Germany (20 mg xylazine/ml, 6.5 ml), Ketaminol Vet., Veterinaria AG, Switzerland (100 mg ketamine/ml, 1.5 ml) and Methadon DAK, Nycomed Danmark, Denmark (10 mg methadon/ml, 2.5 ml).
Intestinal fluid was obtained by flushing one jejunal segment, measuring 30.2 cm, with saline. Intestinal fluid together with saline used for flushing was placed in centrifuge tubes. All samples were frozen at −70° C. and shipped on dry ice to the Sponsor for further use.
2.1.1. Analytical Instrument • Instrument: Acquity UPLC system coupled with a TQ detector (triple quadruple mass spectrometer)
Calibration solutions were prepared by serial dilution of SSMMF; diluted small intestinal fluid (diluted by 1/20 v/v with 50 mM KH2PO4, pH 6.8; (dil IF) was used as matrix. The dilution scheme is given below:
50 μl sample (calibration solution or sample of an incubation experiment with MMF prodrugs) was mixed with 50 μl WSISTD, 20 μl formic acid and 100 μl acetonitrile. This mixture was vortexed for 15 sec and centrifuged (13,000 rpm, 3 min). Thereafter, 4 μl of the supernatant were subjected to LC-MS analysis.
2.2. Incubation Experiments with DMF (Reference) and Compounds of the Invention
Stock solutions were prepared in DMSO. Concentrations in stock solutions were 5.00, 2.50 and 1.67 mmol for compounds with one, two and three molar MMF equivalents.
In a HPLC glass vial, 8 μl of stock solution were mixed with 792 μl dil IF and the mixture was stirred (250 rpm) in a water bath (T=37° C.).
Immediately after mixing as well as at t=15 min, 30 min, 60 min, 90 min and 120 min, 50 μl were withdrawn and prepared for LC-MS analysis as described in chapter. 2.1.3.
Incubations were continued and in case the result of analysis of the 120 min indicated the presence of remaining intact MMF prodrug, additional samples were taken (t=360 or 420 min and at 1,260 or 1,320 min) and analysed.
The concentration/peak area ratio data pairs were subjected to regression analysis with 1/x weighting and the resulting calibration equation was used to quantify the MMF content in incubation samples.

CCOC(=O)[C@H](OC(=O)/C=C/C(=O)OC)[C@@H](OC(=O)/C=C/C(=O)OC)C(=O)OCC [Example 1, (E)-But-2-enedioic acid (1R,2R)-1,2-bis-ethoxy-carbonyl-2-((E)-3-methoxycarbonyl-acryloyloxy)-ethyl ester methyl ester]
hydrolyzation (to MMF) compared to DMF: modified hydrolyzation compared to DMF | release kinetics (MMF release) compared to DMF: significantly slower than the one of DMF

COC(=O)/C=C/C(=O)OCCN(CCO)CCOC(=O)/C=C/C(=O)OC [Example 3, (2-Hydroxy-ethyl)-bis-[2-((E)-3-methoxycarbonyl-acryloyloxy)-ethyl]-amine]
hydrolyzation (to MMF) compared to DMF: modified hydrolyzation compared to DMF | release kinetics (MMF release) compared to DMF: significantly slower than the one of DMF

COC(=O)/C=C/C(=O)O[C@@H](C(=O)OC(C)C)[C@@H](OC(=O)/C=C/C(=O)OC)C(=O)OC(C)C [Example 2, (E)-But-2-enedioic acid (1R,2R)-1,2-bis-isopropoxycarbonyl-2-((E)-3-methoxycarbonyl-acryloyloxy)-ethyl ester methyl ester]
hydrolyzation (to MMF) compared to DMF: modified hydrolyzation compared to DMF | release kinetics (MMF release) compared to DMF: significantly slower than the one of DMF
